Marks after values point to notes of the source that are not given here.
Key:
[1] = system: restenosis experimentally caused by balloon angioplasty; test: Restenosis induced in rats by balloon angioplasty (neointima/middle tunica thickness ratio); format: in vivo, Male Wistar rats; conditions: for Restenosis %: 14 days after vascular damage, control = 100; for formation of the neointima tunica in the vascular wall / restenosis (in words): summary of Table 1, NO-aspirin low doses, Aspirin high doses
Experimental: Efficacy of Aspirin and of 2-acetyloxybenzoic acid (3-nitrooxymethyl)phenyl ester (Formula XI), in an Experimental Model of Restenosis Induced in Rats
Male Wistar rats weighing 300-350 g were anaesthetized by intraperitoneal injection of ketamine (100 mg/kg) and xylazine (5 mg/kg) and subjected to angioplasty according to the procedure described by Indolfi et Al., Circulation, 1995, 92, 1230-1235, by using a little balloon catheter which was first introduced in the aortic arch through the right carotid, then swollen and then let pass three times forth and back in the duct lumen.
(§1) The rats were divided in the indicated groups (n. 12 animals each) and subjected to pharmacological treatment as described hereunder for the 14 days following the vascular damage. The compounds, dissolved in polyethylenglycol (PEG 400) were administered by os by gastric probe according to the following scheme:
2 groups received NO-Aspirin at the dose of 30 and 100 mg/kg, respectively,
2 groups received Aspirin at the dose of 16 and 54 mg/kg, respectively,
1 group received NO-Ketorolac at the dose of 10 mg/Kg,
1 group received Ketorolac at the dose of 5 mg/Kg,
the control group received only the carrier (PEG 400, 0.2 ml/rat).
At the end of the treatment the animals were anaesthetized as described above and the carotids were first washed by infusion, through the left ventricle, of saline buffer phosphate (PBS, pH 7,2, 100 ml) then fixed with PBS containing paraformaldehyde (4%).
(§2) The animals were sacrificed and the carotids removed. For each artery n. 6 sections having a thickness of 6 μm were isolated. Stomachs were removed and inspected for damages of the gastric mucosa, determining the areas of both bleeding lesions and non bleeding lesions. Said lesions were evaluated by a score according to known methods.
3 of the 6 sections of each artery were stained with hematoxylin and eosin to evidence different types of cells, the remaining 3 sections were stained first with aldehyde fuchsin and then with the Gieson solution to evidence the internal elastic lamina (IEL). The sections were photographed and the imagines were analyzed by an image analysis system (Qwin Lite, Leica, Milan).
The thicknesses respectively of the middle and neointima tunica, and of the duct wall were measured. The results reported in Table 1 are expressed as percentage of restenosis and have been calculated as a ratio between the thickness of the neointima tunica and that of the middle tunica […] measured in the sections obtained from the groups, assuming equal to 100 the N/M ratio of the control group.

[2] = system: SP-SHR rats (Stroke-Prone Spontaneously Hypertension Rats); test: Mortality/survival in SP-SHR rats under chronic treatment for 16 weeks; format: in vivo; conditions: controls 0
Description: Evaluation of the Mortality in SP-SHR Rats (Stroke-Prone Spontaneously Hypertension Rats) Treated With 2-acetyloxybenzoic acid (6-nitrooxymethyl)-2-methylpyridinyl hydrochloride ester (Formula XV), (NO-ASA) and Aspirin.
In this experiment SP-SHR rats were used which develop a severe hypertension, with a high incidence of spontaneous cerebral infarct. […] (Yamori Y. et al. Stroke 1976; 7: 46-53).
Three groups each formed by 12 SP-SHR rats, 8 weeks old at the beginning of the experiment, received for 16 weeks together with the daily diet Aspirin (54 mg/kg) NO-ASA (30 mg/kg); the control group received only the diet.
During the period of chronic treatment the percentage of animal survival was evaluated.

gastric mucosa = test: Damages to the gastric mucosa (lesion score) in the rats of the restenosis model; format: in vivo, Male Wistar rats; conditions: for Gastric damage Score: control score 2
Experimental: as §1, §2

[3] = system: oxidized LDL in the vascular wall; test: Vascular damage in carotids: oxidized LDL in the vascular wall (MDA2 antibody immunohistochemistry); format: in vivo, SP-SHR rats; conditions: control = 0
Experimental: Evaluation of the Vascular Damage in Animals Treated With NO-ASA and Aspirin
In this experiment SP-SHR rats were used, as in the previous Example.
Three groups, each formed by 12 SP-SHR rats, 8 weeks old at the beginning of the experiment, received respectively for 6 weeks, together with the daily diet Aspirin (54 mg/kg) NO-ASA (30 mg/kg) (two groups); the control group (third group) received only the diet.
At the end of the treatment the animals were sacrificed by decapitation and the carotids were isolated. The ducts were opened and washed with cold sterile buffer phosphate (PBS) containing EDTA (2 mM) and maintained in cold PBS (cooled in ice bath) containing 2, [6]-di-tert-butyl-p-cresol (50 μM), aprotin (0.001%), EDTA (50 mM) and chloramphenicol (0.008%). The arteries were fixed with formalin (10%), then soaked in paraffin and then dissected. An aliquot of the obtained sections was incubated with MDA2 antibodies, which are directed against specific epitopes for oxidized LDL.
The data were calculated by considering the number of the sections, positive at the immunohistochemical test with MDA2 antibodies, detected in the groups of the treated animals and in the control group, respectively. The results are expressed as percentage of reduction of the oxidized LDL (low density lipoprotein) presence in the vascular wall taking as 0 the LDL value measured in the control group.

[4] = 54 mg/kg/die with the daily diet
[5] = 30 mg/kg/die with the daily diet

SMILES: CC(=O)Oc1ccccc1C(=O)O [Aspirin, aspirin]
- Restenosis % ([1]; 16 mg/Kg by os): 100%
- Restenosis % ([1]; 54 mg/Kg by os): 55* %
- formation of the neointima tunica in the vascular wall / restenosis (in words) [1]: small reduction of the restenosis
- % of survival, XVIth week [2, 4]: 50%
- % of survival, Xth week [2, 4]: 100%
- Gastric damage Score (gastric mucosa; Dose 50 mg/Kg): 22*
- Gastric damage Score (gastric mucosa; Dose 100 mg/Kg): 42*
- gastric toxicity / lesions to the gastric mucosa (in words) (gastric mucosa; rat, in vivo): produce lesions to the gastric mucosa
- reduction % of the presence of oxidized LDL ([3]; 54 mg/kg with the daily diet for 6 weeks): 19%

SMILES: O=C(c1ccccc1)c1ccc2n1CCC2C(=O)O (centres unmarked) [Ketorolac, ketorolac]
- Restenosis % ([1]; 5 mg/Kg by os): 100%
- Gastric damage Score (gastric mucosa; Dose 5 mg/Kg): 50

SMILES: O=C(c1ccccc1)c1ccc2n1CCC2C(=O)OCCCCO[N+](=O)[O-] (centres unmarked) [NO Ketorolac, 5-benzoyl-2,3-dihydro-1H-pyrrolizin-1-carboxylic acid (4-nitrooxy)butyl ester]
- Restenosis % ([1]; 10 mg/Kg by os): 90%
- formation of the neointima tunica in the vascular wall / restenosis (in words) [1]: not very effective
- Gastric damage Score (gastric mucosa; Dose 10 mg/Kg): 20
- gastric toxicity / lesions to the gastric mucosa (in words) (gastric mucosa; summary of Table 1, Aspirin high doses): shows a gastric toxicity

SMILES: CC(=O)Oc1ccccc1C(=O)OCc1cccc(CO[N+](=O)[O-])n1.Cl [NO-ASA, 2-(acetyloxy)benzoic acid, 6-(nitrooxymethyl)-2-methyl pyridinyl hydrochloride ester]
- % of survival, XVIth week [2, 5]: 100%
- % of survival, Xth week [2, 5]: 100%
- reduction % of the presence of oxidized LDL ([3]; 30 mg/kg with the daily diet for 6 weeks): 74%

SMILES: CC(=O)Oc1ccccc1C(=O)Oc1cccc(CO[N+](=O)[O-])c1 [NO-Aspirin, 2-(acetyloxy)benzoic acid 3-(nitrooxymethyl)phenyl ester]
- Restenosis % ([1]; 30 mg/Kg by os): 62.5* %
- Restenosis % ([1]; 100 mg/Kg by os): 31* %
- formation of the neointima tunica in the vascular wall / restenosis (in words) [1]: already significantly reduced
- Gastric damage Score (gastric mucosa; Dose 166 mg/Kg): 2
- Gastric damage Score (gastric mucosa; Dose 249 mg/Kg): 4

From patent US20040171592A1, “Organic nitrate-based compounds for the treatment of vasculopathies” (priority 2001, published 2004)
